According to patent US20110212137A1, “INHALABLE PHARMACEUTICAL COMPOSITION” (TEVA BRANDED PHARMACEUTICAL PRODUCTS R&D, INC., priority 2010, published 2011):

Tested on: Asthma patients
Assay: Retrospective observational cohort study (UK General Practice Research Database): odds of successful asthma control after ICS increase
Type: in vivo
Settings: compared with Qvar; as the primary proxy plus average daily prescribed salbutamol no more than 200 mcg and terbutaline 500 mcg; 12 month follow-up
Text: Qvar® and other inhaled corticosteroids (ICS) CFC-beclometasone (BDP) and fluticasone propionate (FP) were compared in a large representative, UK clinical database.
Patients were eligible if they had data available for the twelve months prior to AND twelve months after the date of ICS increase. Multiple logistic regression, adjusted for baseline severity, provided odds of successful asthma control (no asthma hospital attendances, oral steroids, consultations or hospital admissions for lower respiratory tract infections requiring antibiotics) during 12 month follow-up. Poisson regression was used to compare asthma exacerbation rates (unscheduled hospital admissions/A&E attendances for asthma or use of oral steroids).
Study Design: A retrospective, observational, cohort study design was used, consisting of two time periods: a baseline period for confounder definition (minimum of one year before index prescription date) and an outcome period of one year post-index prescription date. The study design is shown in schematic format in FIG. 1.
Statistical Analysis: Descriptive statistics were used to compare baseline outcomes. Multiple logistic regression, adjusted for baseline severity and other potential confounders found at baseline, was used to determine the odds of successful asthma control. Poisson regression was used to compare exacerbation rates. […]

With `CCC(=O)O[C@]1(C(=O)SCF)[C@H](C)C[C@H]2[C@@H]3C[C@H](F)C4=CC(=O)C=C[C@]4(C)[C@@]3(F)[C@@H](O)C[C@@]21C` [FP, fluticasone propionate] the “Adjusted odds ratio for successful asthma control, revised definition including SABA use” value was 0.90.
